19 compounds from patent US12415785B2, “Compound modulators of sting” (CTXT PTY LTD, priority 2019, dated 2025) can be followed below.

The structures appear in SMILES notation.

Format in all cases: binding
Assay [1] has as its target human STING (WT) (Homo sapiens (Human), UniProt Q86WV6, H232R). Description: Surface plasmon resonance (SPR), STING (WT). The settings on record: biotinylated STING on streptavidin chip, 8° C. On the procedure: (§1) Biophysical experiments were performed with three different recombinant human STING protein variants designated according to allelic nomenclature of Yi et al., (2013). Codon optimized DNA sequences (for expression in Escherichia coli) encoding amino acid residues 149 to 345 (Swiss Prot Q86WV6) of human STING (WT), human STING (HAQ) and human STING (R232H) were synthesised by GenScript USA Inc (Piscataway, New Jersey, USA). These were ligated into a modified pET43a E. coli expression vector designed to encode N-terminal His tag followed by tobacco etch virus protease (TEV) cleavage site and a STING gene sequence. The resulting protein sequences for the three allelic variants are listed below:
(§2) Binding interactions of ligands with STING proteins were quantified using Surface Plasmon Resonance (SPR) with a minimally biotinylated STING protein immobilized on a streptavidin chip surface. […] Minimal biotinylation of purified huSTING proteins was performed using a previously described methodology (Chhabra 2012). Briefly, approximately 20 nmol of recombinant STING protein in 1×TBS buffer (25 mM Tris-HCl, pH 7.5, 150 mM NaCl, 5 mM DTT) was mixed with of EZ-Link™ Sulfo-NHS-LC-LC-Biotin (Thermofisher Scientific, cat #21338) at a molar ratio of 1 to 0.6 and incubated on ice for 2 hours. To remove any unreacted biotin reagent, protein/biotin mixture was passed through a Superdex 75 (10/300 GL) column equilibrated with 10 mM HEPES, pH7.4, 150 mM NaCl, 5 mM DTT, 5%[v/v] glycerol. A protein peak containing biotinylated huSTING protein was collected and stored in aliquots at −80° C.
Streptavidin was simultaneously immobilized in all four channels of a CM5 sensor chip docked in a Biacore instrument (either Biacore S200 or Biacore T200, GE Healthcare) as described previously (Zender 2013). Minimally biotinylated STING protein was captured onto a streptavidin coated chip surface at 8° C. in SPR binding buffer (50 mM HEPES, pH 7.4, 150 mM NaCl, 2%[v/v] DMSO) by gradually injecting in a single channel at a constant flow-rate of 2 μL/min until desired capture level was achieved, typically 3000 to 7000 RU (1 RU=1 pg/mm^2).
All binding experiments were performed at 8° C. in SPR binding buffer. To determine binding affinity, compound interaction with immobilized STING protein was analysed using dose-response experiments. Fresh 10 mM DMSO solutions of compound were diluted directly into SPR binding buffer typically to a concentration of 50 μM and then further diluted 2-fold or 3-fold aiming for either a 5- or 7-point concentration series range. Each ligand concentration series was injected at a constant flow rate of 60 μL/min with a 90 second association and a 180 second dissociation time. These were modified for compounds with longer residence times, so that curves could reach steady-state, or so that compound would be fully dissociated before the subsequent injection.
Scrubber 2 (www.biologic.com.au) was utilized for data processing, where signals were referenced against the blank surface (streptavidin+D-biotin) and further corrected for DMSO refractive index change and then “double-referenced” using a buffer-blank injection (Papalia 2006). Responses were fitted to either a 1:1 steady-state affinity model or a 1:1 kinetic model (that included a mass-transport component), available within Scrubber.
For orientation: SPR reads the build-up and loss of mass on a sensor chip optically.

The target in assay [2] is human STING (HAQ) (Homo sapiens, UniProt Q86WV6, G230A/H232R/R293Q). Description: Surface plasmon resonance (SPR), STING (HAQ). The settings on record: biotinylated STING on streptavidin chip, 8° C. On the procedure: as §1, §2
Streptavidin was simultaneously immobilized in all four channels of a CM5 sensor chip docked in a Biacore instrument (either Biacore S200 or Biacore T200, GE Healthcare) as described previously (Zender 2013). […]
All binding experiments were performed at 8° C. in SPR binding buffer. To determine binding affinity, compound interaction with immobilized STING protein was analysed using dose-response experiments. […]

The test system of assay [3] is human STING (HAQ). Description: Differential scanning fluorimetry (DSF), huSTING (HAQ). The note with it: 2 μM protein, compound 100 μM; Tm with ligand minus Tm of protein alone (1% DMSO). A digest of the protocol:
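Recombinant His-TEV-tagged human STING allelic variants expressed in E. coli and purified by IMAC. Thermal unfolding followed by dye fluorescence (excitation 490 nm, emission 570 nm) from 20° C. to 100° C. in 0.5° C. steps, in triplicate, with and without ligand; Tm taken from the transition inflection point.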
A general note: Differential scanning fluorimetry follows unfolding on heating by fluorescence.

Sequence of human STING (HAQ) (Homo sapiens, UniProt Q86WV6, G230A/H232R/R293Q) (Q86WV6 whole entry G230A/H232R/R293Q, looked up): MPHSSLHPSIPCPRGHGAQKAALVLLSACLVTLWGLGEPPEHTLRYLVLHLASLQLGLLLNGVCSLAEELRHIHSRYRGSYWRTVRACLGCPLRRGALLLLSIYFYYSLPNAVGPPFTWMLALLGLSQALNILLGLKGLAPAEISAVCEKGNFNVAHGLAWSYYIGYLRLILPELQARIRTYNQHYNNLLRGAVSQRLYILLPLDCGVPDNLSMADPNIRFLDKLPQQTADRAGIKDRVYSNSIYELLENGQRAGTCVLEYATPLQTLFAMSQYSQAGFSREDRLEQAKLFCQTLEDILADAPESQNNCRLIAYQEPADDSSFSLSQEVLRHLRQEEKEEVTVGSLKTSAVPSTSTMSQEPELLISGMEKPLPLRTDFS
Sequence of human STING (WT) (Q86WV6 other isoform, or with tags, fused parts or gaps, stated change not applied): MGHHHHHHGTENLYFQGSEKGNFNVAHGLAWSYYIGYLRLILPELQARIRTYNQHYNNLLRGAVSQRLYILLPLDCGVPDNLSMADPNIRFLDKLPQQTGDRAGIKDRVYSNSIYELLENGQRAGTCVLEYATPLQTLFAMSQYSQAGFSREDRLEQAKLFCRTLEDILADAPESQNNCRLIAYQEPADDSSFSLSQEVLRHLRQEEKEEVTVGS

By Kd is commonly meant the free concentration of one partner at which half of the binding sites on the other are occupied at equilibrium, for simple one-to-one binding. Low readings indicate tighter binding, high ones weaker binding. In the case of `COc1c(C(N)=O)ccc2c1nc(-c1ccc(C(F)(F)F)cc1C(=O)O)n2CCn1c(-c2ccc(C(F)(F)F)cc2C(=O)O)nc2c(OC)c(C(N)=O)ccc21` [Example 38, 6,6′-(Ethane-1,2-diylbis(5-carbamoyl-4-methoxy-1H-benzo[d]imidazole-1,2-diyl))bis(3-(trifluoromethyl)benzoic acid)], the Kd in assay [1] and in assay [2] was more than 100 µM throughout.

For `NC(=O)c1ccc2c(c1)nc(-c1c(Br)cccc1C(=O)O)n2CCn1c(-c2c(Br)cccc2C(=O)O)nc2cc(C(N)=O)ccc21` (single isomer, unassigned) [Example 29.1, 2,2′-(Ethane-1,2-diylbis(5-carbamoyl-1H-benzo[d]imidazole-1,2-diyl))bis(3-bromobenzoic acid)], in assay [1], the Kd amounted to 33 µM. Further, the “DSF huSTING (HAQ) ΔTm (° C.)” value in assay [3] is 7.46 °C.

Turning to `NC(=O)c1ccc2c(c1)nc(-c1cc(Br)ccc1C(=O)O)n2CCn1c(-c2cc(Br)ccc2C(=O)O)nc2cc(C(N)=O)ccc21` [Example 3, 2,2′-(Ethane-1,2-diylbis(5-carbamoyl-1H-benzo[d]imidazole-1,2-diyl))bis(4-bromobenzoic acid)], the results for the Kd in assay [1] and in assay [2] were 700 µM and more than 10 µM, respectively.

For the compound `COc1c(C(N)=O)ccc2c1nc(-c1ccc(Cl)c(Cl)c1-c1nn[nH]n1)n2CCn1c(-c2ccc(Cl)c(Cl)c2-c2nn[nH]n2)nc2c(OC)c(C(N)=O)ccc21` [Example 37, 1,1′-(Ethane-1,2-diyl)bis(2-(3,4-dichloro-2-(2H-tetrazol-5-yl)phenyl)-4-methoxy-1H-benzo[d]imidazole-5-carboxamide)], binding in assay [2] was characterised by a dissociation constant (Kd) of 0.2 µM.

Regarding `COc1c(C(N)=O)cc(F)c2c1nc(-c1c(F)cc(F)cc1C(=O)O)n2CCn1c(-c2c(F)cc(F)cc2C(=O)O)nc2c(OC)c(C(N)=O)cc(F)c21` [Example 18, 2,2′-(Ethane-1,2-diylbis(5-carbamoyl-7-fluoro-4-methoxy-1H-benzo[d]imidazole-1,2-diyl))bis(3,5-difluorobenzoic acid)], the Kd in assay [1] was 2.01 µM.

On to `COc1c(C(N)=O)ccc2c1nc(-c1ccc(Cl)cc1C(=O)O)n2CCn1c(-c2ccc(Cl)cc2C(=O)O)nc2c(OC)c(C(N)=O)ccc21` [Example 1, 6,6′-(Ethane-1,2-diylbis(5-carbamoyl-4-methoxy-1H-benzo[d]imidazole-1,2-diyl))bis(3-chlorobenzoic acid)], for which the Kd in assay [1] came out at 200 µM.

`COc1c(C(N)=O)ccc2c1nc(-c1c(F)cccc1-c1nn[nH]n1)n2CCn1c(-c2c(F)cccc2-c2nn[nH]n2)nc2c(OC)c(C(N)=O)ccc21` [Example 48, 1,1′-(Ethane-1,2-diyl)bis(2-(2-fluoro-6-(2H-tetrazol-5-yl)phenyl)-4-methoxy-1H-benzo[d]imidazole-5-carboxamide)] had a Kd in assay [1] of 0.512 µM.

For the compound `COc1c(C(N)=O)ccc2c1nc(-c1c(F)cccc1-c1n[nH]c(=O)o1)n2CCn1c(-c2c(F)cccc2-c2n[nH]c(=O)o2)nc2c(OC)c(C(N)=O)ccc21` [Example 49, 1,1′-(Ethane-1,2-diyl)bis(2-(2-fluoro-6-(5-oxo-4,5-dihydro-1,3,4-oxadiazol-2-yl)phenyl)-4-methoxy-1H-benzo[d]imidazole-5-carboxamide)], in assay [1], the Kd was 0.755 µM.

On to `COc1c(C(N)=O)ccc2c1nc(-c1c(F)cc(Cl)cc1C(=O)O)n2CCn1c(-c2c(F)cc(Cl)cc2C(=O)O)nc2c(OC)c(C(N)=O)ccc21` [Example 11, 2,2′-(ethane-1,2-diylbis(5-carbamoyl-4-methoxy-1H-benzo[d]imidazole-1,2-diyl))bis(5-chloro-3-fluorobenzoic acid)], for which the Kd in assay [1] is 1.08 µM.

In assay [1], `COc1c(C(N)=O)ccc2c1nc(-c1c(Cl)cccc1-c1nn[nH]n1)n2CCn1c(-c2c(Cl)cccc2-c2nn[nH]n2)nc2c(OC)c(C(N)=O)ccc21` (single isomer, unassigned) [Example 23, 1,1′-(Ethane-1,2-diyl)bis(2-(2-chloro-6-(2H-tetrazol-5-yl)phenyl)-4-methoxy-1H-benzo[d]imidazole-5-carboxamide)] registered a Kd of 0.043 µM.

In assay [1], `COc1c(C(N)=O)ccc2c1nc(-c1cc(C)ccc1C(=O)O)n2CCn1c(-c2cc(C)ccc2C(=O)O)nc2c(OC)c(C(N)=O)ccc21` [Example 26, 2,2′-(Ethane-1,2-diylbis(5-carbamoyl-4-methoxy-1H-benzo[d]imidazole-1,2-diyl))bis(4-methylbenzoic acid)] returned a Kd of more than 40 µM.

With `COc1c(C(N)=O)ccc2c1nc(-c1ncc(Cl)cc1C(=O)O)n2CCn1c(-c2ncc(Cl)cc2C(=O)O)nc2c(OC)c(C(N)=O)ccc21` [Example 31, 2,2′-(Ethane-1,2-diylbis(5-carbamoyl-4-methoxy-1H-benzo[d]imidazole-1,2-diyl))bis(5-chloronicotinic acid)], binding in assay [1] was put at a Kd of 88 µM.

As to `COc1c(C(N)=O)ccc2c1nc(-c1c(F)cc(F)cc1-c1n[nH]c(=O)o1)n2CCn1c(-c2c(F)cc(F)cc2-c2n[nH]c(=O)o2)nc2c(OC)c(C(N)=O)ccc21` [Example 44, 1,1′-(Ethane-1,2-diyl)bis(2-(2,4-difluoro-6-(5-oxo-4,5-dihydro-1,3,4-oxadiazol-2-yl)phenyl)-4-methoxy-1H-benzo[d]imidazole-5-carboxamide)], binding in assay [1] was put at a Kd of 11.1 µM.

In assay [1], `NC(=O)c1ccc2c(c1)nc(-c1ccccc1-c1nn[nH]n1)n2CCn1c(-c2ccccc2-c2nnn[nH]2)nc2cc(C(N)=O)ccc21` [Example 5, 2-(2-(1H-Tetrazol-5-yl)phenyl)-1-(2-(2-(2-(2H-tetrazol-5-yl)phenyl)-5-carbamoyl-1H-benzo[d]imidazol-1-yl)ethyl)-1H-benzo[d]imidazole-5-carboxamide] gave a Kd of 30 µM.

In assay [1], `COc1c(C(N)=O)ccc2c1nc(-c1cccc(Cl)c1-c1nn[nH]n1)n2CCn1c(-c2cccc(Cl)c2-c2nn[nH]n2)nc2c(OC)c(C(N)=O)ccc21` [Example 40, 1,1′-(Ethane-1,2-diyl)bis(2-(3-chloro-2-(2H-tetrazol-5-yl)phenyl)-4-methoxy-1H-benzo[d]imidazole-5-carboxamide)] gave a Kd of 180 µM.

`COc1c(C(N)=O)ccc2c1nc(-c1ccccc1-c1nn[nH]n1)n2CCn1c(-c2ccccc2-c2nn[nH]n2)nc2c(OC)c(C(N)=O)ccc21` [Example 6, 1,1′-(Ethane-1,2-diyl)bis(2-(2-(2H-tetrazol-5-yl)phenyl)-4-methoxy-1H-benzo[d]imidazole-5-carboxamide)]: in assay [1], the Kd turned out to be 40 µM.

As for `COC(=O)c1c(Br)cccc1-c1nc2c(OC)c(C(N)=O)ccc2n1CCn1c(-c2cccc(Br)c2C(=O)OC)nc2c(OC)c(C(N)=O)ccc21` [Example 21, Dimethyl 6,6′-(ethane-1,2-diylbis(5-carbamoyl-4-methoxy-1H-benzo[d]imidazole-1,2-diyl))bis(2-bromobenzoate)], the Kd in assay [1] stood at 5.38 µM.

`COc1c(C(N)=O)ccc2c1nc(-c1ccc(Cl)cc1-c1cn[nH]n1)n2CCn1c(-c2ccc(Cl)cc2-c2cn[nH]n2)nc2c(OC)c(C(N)=O)ccc21` [Example 24, 1,1′-(Ethane-1,2-diyl)bis(2-(4-chloro-2-(2H-1,2,3-triazol-4-yl)phenyl)-4-methoxy-1H-benzo[d]imidazole-5-carboxamide)]: the Kd in assay [1] turned out to be 102 µM.

In turn, `COc1c(C(N)=O)ccc2c1nc(-c1c(F)cc(Cl)cc1-c1n[nH]c(=O)o1)n2CCn1c(-c2c(F)cc(Cl)cc2-c2n[nH]c(=O)o2)nc2c(OC)c(C(N)=O)ccc21` [Example 50, 1,1′-(Ethane-1,2-diyl)bis(2-(4-chloro-2-fluoro-6-(5-oxo-4,5-dihydro-1,3,4-oxadiazol-2-yl)phenyl)-4-methoxy-1H-benzo[d]imidazole-5-carboxamide)] registered a Kd in assay [1] of 0.359 µM.
